The values that follow come from patent publication US20100292255A1, “Therapeutic Compounds and Their Use in Treating Diseases and Disorders” (Myriad Pharmaceuticals, Inc., priority 2007, published 2010).

One assay relates to T1, purified human Hsp90.
T1 construct: purified human Hsp90 (Stressgen, SPP-770)
Nature of the assay: Hsp90 binding assay: displacement of BODIPY-labeled geldanamycin measured by fluorescence polarization. To be noted: 5 μM compound; BODIPY-GM 10 nM, Hsp90 30 nM, overnight at room temperature. As to the method: Binding of the Example Compounds to purified Hsp90 was assayed by measuring the displacement of BODIPY-labeled geldanamycin (BODIPY-GM) from purified human Hsp90, using a fluorescence polarization assay adapted from Kim et al. (J. Biomolec. Screening, 9(5):375-381 (2004)). Compound dilutions (in 100% DMSO) were added to black-bottom 96-well plates (Greiner Bio-One, Monroe, N.C.) in 2% DMSO final, and equal volumes of BODIPY-GM (10 nM final) and purified human Hsp90 (Stressgen, SPP-770; 30 nM final) (Assay Designs, Ann Arbor, Mich.) in assay buffer (20 mM HEPES-KOH pH 7.3, 50 mM KCl, 5 mM MgCl2, 20 mM Na2MoO4, 0.01% NP-40, 0.1 mg/mL bovine gamma globulin [P2045; Invitrogen, Carlsbad, Calif.], 2 mM DTT) were added sequentially to yield a final volume of 50 microliters. Plates were incubated overnight at room temperature. Parallel and perpendicular fluorescence measurements were read (Analyst AD plate reader; LJL BioSystems, Middletown, Conn.) with excitation/emission wavelengths of 485/530 nm. Background fluorescence (buffer only) was subtracted, and fluorescence polarization (FP) values, expressed in mP units, were calculated from parallel and perpendicular fluorescence readings as follows:
FP=(parallel−perpendicular)/(parallel+perpendicular)*1000.
Percent inhibition was calculated by normalizing the FP values to those obtained in parallel reactions containing DMSO and subtracting these normalized values from 100%. Intrinsic compound fluorescence was independently monitored, and FP data points confounded by compound fluorescence were excluded from the analysis.
Take `Nc1ncn(CCC2CCN(C=O)CC2)c2nc(Sc3cc(O)c(O)cc3Br)nc1-2` [Example Compound 146, 4-(2-{6-amino-8-[(2-bromo-4,5-dihydroxyphenyl)thio]-3H-purin-3-yl}ethyl)piperidine-1-carbaldehyde]: the “GM displacement from purified Hsp90 measured by FP Inhibition by 5 μM compd. (%)” value is 87.0%.
Same read-out and setting: then `Cc1cc(Br)c(Sc2nc3c(N)ncn(CCC4CCN(C(=O)[C@H](C)O)CC4)c-3n2)cc1C` [Example Compound 166, (2S)-1-[4-(2-{6-amino-8-[(2-bromo-4,5-dimethylphenyl)thio]-3H-purin-3-yl}ethyl)piperidin-1-yl]-1-oxopropan-2-ol], with 75.0%.

Staying with this assay, now noted: BODIPY-GM 10 nM, Hsp90 30 nM, overnight at room temperature; read-out: GM displacement from purified Hsp90 measured by FP IC 50.
As for `Nc1ncnc2c1nc(Sc1cc(O)c(O)cc1Br)n2CCC1CCN(C=O)CC1` [Example Compound 145, 4-(2-{6-Amino-8-[(2-bromo-4,5-dihydroxyphenyl)thio]-9H-purin-9-yl}ethyl)piperidine-1-carbaldehyde], the IC50 came out at 600 nM.
On the same count and under the same terms, the same measure for `Nc1ncnc2c1nc(Sc1cc3c(cc1Br)OCO3)n2CCC1CCNCC1` [Example Compound 147, 8-[(6-Bromo-1,3-benzodioxol-5-yl)thio]-9-(2-piperidin-4-ylethyl)-9H-purin-6-amine]: 470 nM.
Same read-out and setting: the same measure for `Nc1ncnc2c1nc(Sc1cc3c(cc1Br)OCO3)n2CCC1CCN(S(N)(=O)=O)CC1` [Example Compound 148, 4-(2-{6-Amino-8-[(6-bromo-1,3-benzodioxol-5-yl)thio]-9H-purin-9-yl}ethyl)piperidine-1-sulfonamide]: 400 nM; for `Nc1ncnc2c1nc(Sc1cc3c(cc1Br)OCO3)n2CCC1CCN(CCO)CC1` [Example Compound 149, 2-[4-(2-{6-Amino-8-[(6-bromo-1,3-benzodioxol-5-yl)thio]-9H-purin-9-yl}ethyl)piperidin-1-yl]ethanol]: 450 nM.
Same read-out and setting: then `Nc1ncnc2c1nc(Sc1cc3c(cc1Br)OCO3)n2CCC1CCN(CCCO)CC1` [Example Compound 150, 3-[4-(2-{6-Amino-8-[(6-bromo-1,3-benzodioxol-5-yl)thio]-9H-purin-9-yl}ethyl)piperidin-1-yl]propan-1-ol], with 600 nM; and `NC(=O)C[C@H](N)C(=O)N1CCC(CCn2c(Sc3cc4c(cc3Br)OCCO4)nc3c(N)ncnc32)CC1` [Example Compound 151, (3S)-3-Amino-4-[4-(2-{6-amino-8-[(7-bromo-2,3-dihydro-1,4-benzodioxin-6-yl)thio]-9H-purin-9-yl}ethyl)piperidin-1-yl]-4-oxobutanamide], with 57 nM.
For the compound `NC(=O)C[C@H](N)C(=O)N1CCC(CCn2c(Sc3cc4c(cc3Br)OCO4)nc3c(N)ncnc32)CC1` [Example Compound 152, (3S)-3-Amino-4-[4-(2-{6-amino-8-[(6-bromo-1,3-benzodioxol-5-yl)thio]-9H-purin-9-yl}ethyl)piperidin-1-yl]-4-oxobutanamide], the IC50 stood at 114 nM.
On the same count and under the same terms, then `NC(=O)CCC(=O)N1CCC(CCn2c(Sc3cc4c(cc3Br)OCCO4)nc3c(N)ncnc32)CC1` [Example Compound 153, 4-[4-(2-{6-Amino-8-[(7-bromo-2,3-dihydro-1,4-benzodioxin-6-yl)thio]-9H-purin-9-yl}ethyl)piperidin-1-yl]-4-oxobutanamide], with 175 nM; and `Nc1ncnc2c1nc(Sc1cc3c(cc1Br)OCCO3)n2CCC1CCN(C2=NC(=O)CC2)CC1` [Example Compound 154, 5-[4-(2-{6-amino-8-[(7-bromo-2,3-dihydro-1,4-benzodioxin-6-yl)thio]-9H-purin-9-yl}ethyl)piperidin-1-yl]-3,4-dihydro-2H-pyrrol-2-one], with 105 nM.
On the same count and under the same terms, the same measure for `NC(=O)CCC(=O)N1CCC(CCn2c(Sc3cc4c(cc3Br)OCO4)nc3c(N)ncnc32)CC1` [Example Compound 155, 4-[4-(2-{6-Amino-8-[(6-bromo-1,3-benzodioxol-5-yl)thio]-9H-purin-9-yl}ethyl)piperidin-1-yl]-4-oxobutanamide]: 300 nM; for `Nc1ncnc2c1nc(Sc1cc3c(cc1Br)OCO3)n2CCC1CCN(C2=NC(=O)CC2)CC1` [Example Compound 156, 5-[4-(2-{6-amino-8-[(6-bromo-1,3-benzodioxol-5-yl)thio]-9H-purin-9-yl}ethyl)piperidin-1-yl]-3,4-dihydro-2H-pyrrol-2-one]: 160 nM; for `CS(=O)(=O)NCC(=O)N1CCC(CCn2c(Sc3cc4c(cc3Br)OCCO4)nc3c(N)ncnc32)CC1` [Example Compound 157, N-{2-[4-(2-{6-Amino-8-[(7-bromo-2,3-dihydro-1,4-benzodioxin-6-yl)thio]-9H-purin-9-yl}ethyl)piperidin-1-yl]-2-oxoethyl}methanesulfonamide]: 195 nM.
Same read-out and setting: the same measure for `CS(=O)(=O)NCC(=O)N1CCC(CCn2c(Sc3cc4c(cc3Br)OCO4)nc3c(N)ncnc32)CC1` [Example Compound 158, N-{2-[4-(2-{6-Amino-8-[(6-bromo-1,3-benzodioxol-5-yl)thio]-9H-purin-9-yl}ethyl)piperidin-1-yl]-2-oxoethyl}methanesulfonamide]: 360 nM; for `CC(=O)NCC(=O)N1CCC(CCn2c(Sc3cc4c(cc3Br)OCCO4)nc3c(N)ncnc32)CC1` [Example Compound 159, N-{2-[4-(2-{6-Amino-8-[(7-bromo-2,3-dihydro-1,4-benzodioxin-6-yl)thio]-9H-purin-9-yl}ethyl)piperidin-1-yl]-2-oxoethyl}acetamide]: 150 nM; for `CC(=O)N[C@@H](C)C(=O)N1CCC(CCn2c(Sc3cc4c(cc3Br)OCCO4)nc3c(N)ncnc32)CC1` [Example Compound 160, N-{(1S)-2-[4-(2-{6-Amino-8-[(7-bromo-2,3-dihydro-1,4-benzodioxin-6-yl)thio]-9H-purin-9-yl}ethyl)piperidin-1-yl]-1-methyl-2-oxoethyl}acetamide]: 200 nM.
With `CC(=O)N[C@H](C)C(=O)N1CCC(CCn2c(Sc3cc4c(cc3Br)OCCO4)nc3c(N)ncnc32)CC1` [Example Compound 161, N-{(1R)-2-[4-(2-{6-Amino-8-[(7-bromo-2,3-dihydro-1,4-benzodioxin-6-yl)thio]-9H-purin-9-yl}ethyl)piperidin-1-yl]-1-methyl-2-oxoethyl}acetamide], the IC50 is 140 nM.
On to `Nc1ncnc2c1nc(Sc1cc3c(cc1Br)OCCO3)n2CCC1CCN(C(=O)CS)CC1` [Example Compound 162, 2-[4-(2-{6-Amino-8-[(7-bromo-2,3-dihydro-1,4-benzodioxin-6-yl)thio]-9H-purin-9-yl}ethyl)piperidin-1-yl]-2-oxoethanethiol], for which the IC50 turned out to be 60 nM.
The same measure, in the same setting: then `C[C@H](O)C(=O)N1CCC(CCn2c(Sc3cc4c(cc3Br)CCCC4)nc3c(N)ncnc32)CC1` [Example Compound 163, (2S)-1-[4-(2-{6-amino-8-[(3-bromo-5,6,7,8-tetrahydronaphthalen-2-yl)thio]-9H-purin-9-yl}ethyl)piperidin-1-yl]-1-oxopropan-2-ol], with 205 nM; and `Cc1cc(Br)c(Sc2nc3c(N)ncnc3n2CCC2CCN(C(=O)[C@H](C)O)CC2)cc1C` [Example Compound 165, (2S)-1-[4-(2-{6-amino-8-[(2-bromo-4,5-dimethylphenyl)thio]-9H-purin-9-yl}ethyl)piperidin-1-yl]-1-oxopropan-2-ol], with 240 nM; and `Nc1ncnc2c1nc(Sc1cc3c(cc1Br)CCO3)n2CCC1CCN(C=O)CC1` [Example Compound 167, 4-(2-{6-Amino-8-[(5-bromo-2,3-dihydro-1-benzofuran-6-yl)thio]-9H-purin-9-yl}ethyl)piperidine-1-carbaldehyde], with 42 nM.
Still for that read-out and setting: then `Nc1ncnc2c1nc(Sc1cc3occc3cc1Br)n2CCC1CCN(C=O)CC1` [Example Compound 168, 4-(2-{6-Amino-8-[(5-bromo-1-benzofuran-6-yl)thio]-9H-purin-9-yl}ethyl)piperidine-1-carbaldehyde], with 95 nM; and `CC(C)(C)OC(=O)N1CCC(CCn2c(Sc3cc4c(cc3C=O)OCO4)nc3c(N)ncnc32)CC1` [Example Compound 169, tert-Butyl 4-(2-{6-amino-8-[(6-formyl-1,3-benzodioxol-5-yl)thio]-9H-purin-9-yl}ethyl)piperidine-1-carboxylate], with 1900 nM; and `COC(=O)c1cc2c(cc1Sc1nc3c(N)ncnc3n1CCC1CCN(C=O)CC1)OCO2` [Example Compound 170, Methyl 6-({6-amino-9-[2-(1-formylpiperidin-4-yl)ethyl]-9H-purin-8-yl}thio)-1,3-benzodioxole-5-carboxylate], with 41 nM.
Consider `CCOC(=O)c1cc2c(cc1Sc1nc3c(N)ncnc3n1CCC1CCN(C=O)CC1)OCO2` [Example Compound 171, ethyl 6-({6-amino-9-[2-(1-formylpiperidin-4-yl)ethyl]-9H-purin-8-yl}thio)-1,3-benzodioxole-5-carboxylate], for which the IC50 worked out at 68 nM.
